Reference: US20240122930A1, “INTEGRIN INHIBITORS AND USES THEREOF IN COMBINATION WITH OTHER AGENTS” (Pliant Therapeutics, Inc., priority 2022, published 2024)
Several values for one entry are separate records, joined by “and”; a condition that tells them apart may be missing. Equal values may be shown once. Entries after “also recorded” stand apart in the source; their conditions may differ. Read-outs that look alike come from different tables or passages of the source.

Columns and labels:
[1] = test system: explanted human lung tissue from patients with idiopathic pulmonary fibrosis; assay: Fibrosis-related gene expression (nCounter Fibrosis Panel) in precision cut lung slices; type: cell-based
Text: Briefly, tissue samples from patients with IPF were acquired at the time of lung transplantation. […] Treated slices were lysed in mRNA-compatible buffer for gene expression analysis. For this study, the lysate from n=6 slices per treatment per lung were pooled for analysis using the nCounter Fibrosis Panel (Nanostring) on the nCounter Max analyzer (Nanostring). This commercially available panel of 770 genes includes genes related to initial tissue damage response, chronic inflammation, proliferation of pro-fibrotic cells, and tissue modification leading to fibrotic disease. Technical quality control and normalization of raw Nanostring mRNA count data was performed using an R framework developed by Bhattacharya et al. (Bhattacharya A. et al., Brief Bioinform. 2021 May 20; 22(3):bbaa163; herein incorporated by reference in its entirety). The R packages limma (see URL www.bioconductor.org/packages/release/bioc/html/limma.html, which is incorporated herein by reference in its entirety) and voom (Law, C.

[2] = αVβ6 target engagement by [18F]FP-R01-MG-F2 PET/CT in participants with IPF; type: in vivo, human; details: human, plasma; Subject C, 320 mg; read-out: Conc (Unbound Plasma Concentration)
Protocol: The aim of this Example is to assess target engagement of the disclosed compounds to αVβ6 in human participants with IPF using [^18F]FP-R01-MG-F2 PET/computerized tomography (CT) imaging.
This Example was conducted as an open-label, single-dose (60 mg, 120 mg, 240 mg or 320 mg) clinical trial evaluating αVβ6 receptor occupancy in the lungs, safety, and pharmacokinetics of Compound #5 in subjects with IPF. To date, 4 participants have completed the study. Each of these 4 participants was undergoing a pre-existing course of therapy using one of the SoC (Standard of Care) compounds, nintedanib. These participants continued their pre-existing nintedanib therapy throughout this study. Knottin tracer uptake kinetics were compared pre- and post-dose of the disclosed compound, as measured by standardized uptake values (SUVs) and parameters estimated from kinetic modeling in regions-of-interest on dynamic [^18F]FP-R01-MG-F2 PET/CT scans. […] Receptor occupancy was estimated from the output of the two-compartment model (VT, the […]) using standard equations and fitting algorithms, and corrections for VND (non-displaceable tracer binding). For example, in FIG. 10, the data points, shown as circles, are modeled by the following formula: […]
Five subjects with IPF were enrolled: Subject A received a single dose of 60 mg of the disclosed compound followed by a post-dose scan. Subject B received two doses of the disclosed compound separated by two weeks, 120 mg and 240 mg, each followed by a post-dose scan. Subject C received two doses of the disclosed compound separated by two weeks, 240 mg and 320 mg, each followed by a post-dose scan. Subject D received a single dose of 320 mg of the disclosed compound followed by a post-dose scan.

[3] = pSMAD2:SMAD2 ratio in BAL and plasma Cmax in healthy subjects; type: in vivo, human; details: male, human, plasma, 40 mg/day, after the dose on Day 7, subjects of FIG. 8A-8F; read-out: Cmax (peak of the blood plasma concentration)
Protocol: (§1) In order to evaluate the change of pSMAD2 as a biomarker of TGF-β activity following administration of an integrin inhibitor, and to determine a therapeutically effective dosage and an effective blood plasma Cmax of the integrin inhibitor, healthy subjects were administered Compound 5, a dual selective αVβ6/αVβ1-integrin inhibitor, and the corresponding Cmax levels and decrease in phosphorylation levels and were determined.
(§2) Healthy non-smoking adult males without history of lung disease were selected as subjects and were randomized into 4 cohorts. Broncoalevaolar lavage samples were obtained from all subjects 1 day prior to start of treatment. Cohorts 1 and 2 were administered 20 mg of a compound daily, wherein 3 subjects were administered the dual selective αVβ6/αVβ1-integrin inhibitor (Compound 5) per every 1 subject receiving a placebo compound. Cohorts 3 and 4 were administered 40 mg of a compound daily, wherein 3 subjects were administered the dual selective αVβ6/αVβ1-integrin inhibitor (Compound 5) per every 1 subject receiving a placebo compound. BAL samples and blood samples were taken from all subjects on Day −1 (baseline) and on Day 7 (end of treatment).

[4] = test system: pSMAD2:SMAD2 ratio in BAL; assay: as above; type: in vivo, human
Protocol: as §1, §2

[5] = SAD and MAD first-in-human pharmacokinetic studies; type: in vivo; details: SAD study, 75 mg oral solution, healthy human subjects; for AUC(0-t): human, po, 75 mg
Protocol: Healthy human subjects (N=85) were selected for single ascending dose (SAD) and multiple ascending dose (MAD) first-in-human studies. A solution for oral administration was prepared, containing 10 mg/mL of Compound 5 in a 50:50 mixture of […], Michigan) and sterile water for irrigation. Sufficient solution was administered orally to the subjects to provide between 15 mg/dose and 75 mg/dose of Compound 5 in the SAD study and between 10 mg/dose and 40 mg/dose of Compound 5 in the MAD study. Concentrations of Compound 5 were measured in the subjects by obtaining a sample of plasma from each subject at desired intervals, and subjecting the plasma to liquid chromatography-mass spectrometry-mass spectrometry (LC-MS/MS), with quantification using a calibration curve determined from a range of solutions at standardized concentrations. The lower limit of quantitation (LLOQ) of the assay was 1 ng/mL and the calibration curve range was 1 to 500 ng/mL.

[6] = FIG. 24 Venn region E: only altered by Compound 5 in the absence of pirfenidone
[7] = gene expression, combination vs individual treatment
[8] = single treatment, adj. p-value <0.05
[9] = 40 mg/day, after the dose on Day 7, subjects of FIG. 8A-8F

COCCN(CCCCc1ccc2c(n1)NCCC2)CC[C@H](Nc1ncnc2ccccc12)C(=O)O [Compound 5, (S)-4-((2-methoxyethyl) (4-(5,6,7,8-tetrahydro-1,8-naphthyridin-2-yl)butyl)amino)-2-(quinazolin-4-ylamino) butanoic acid]
Genes Down-regulated with Compound 5 and Pirfenidone Alone or in Combination, region E [1, 6]: COL3A1 and COL6A3 and LOXL1 and MARCO and MMP8 and PLPP4
Genes Up-regulated with Compound 5 and Pirfenidone Alone or in Combination, region E [1, 6]: APOA2 and CIITA and IFI6 and NOS1 and OAS1 and TTN
Genes Down-regulated with Compound 5 and Pirfenidone Alone or in Combination, region F ([1]; FIG. 24 Venn region F: altered by Compound 5 or pirfenidone alone, but not by Compound 5 in combination with pirfenidone): CXCR4; also recorded: PECAM1
Genes up-regulated, Venn region E (FIG. 24) ([1]; IPF precision cut lung slices, 7 days, only altered by Compound 5 in the absence of nintedanib): APOA2 and CCL13 and CIITA and IFI6
% Reduction APOC2 [1, 7]: −1.20%
% Reduction CDH2 [1, 7]: 23.87%
% Reduction COL1A1 [1, 7]: 38.78%
% Reduction THBS2 [1, 7]: 31.47%
logFC ALDH7A1 [1, 8]: 0.57
logFC OAS1 [1, 8]: 0.6104
concentration at 4 h [2]: 98.5 nM
Cmax [3]: > 900 ng/mL
Cmax (peak of the blood plasma concentration) [4, 9]: 700 to 900 ng/mL and < 700 ng/mL
PD effect (relative change in pSMAD2:SMAD2 ratio from baseline in BAL) [4, 9]: sustained PD effect; also recorded: transitory PD effect; also recorded: no PD effect
correlation of plasma Cmax with reduction of pSMAD2:SMAD2 ratio relative to baseline ([4]; 12 h and 24 h post-administration on Day 7): strongly correlated
Thalf [5]: 20.0 ± 3.6 h
AUC(0-t) ([5]; plasma, read-out: AUC0-24): 19700 ± 10900 ng·h/mL
AUC(0-t) ([5]; plasma, read-out: AUC0-48): 22500 ± 15700 ng·h/mL
Cmax ([5]; plasma): 1870 ± 1240 ng/mL
Tmax ([5]; plasma): 2.9 ± 1 h
